These results are taken from US20070015815A1, “Hydrazide substrate shuts down protein biosynthesis capability in cells that host a metastatic or malignant disease mechanism” (priority 2003, published 2007).

One series concerns fetal cells. The class given is in vivo. To be noted: offspring.
For the next series, the system named is HIV. In kind it is in vivo, human.
In the next series the test system is influenza. Put plainly: influenza of the applicant. In kind it is in vivo, human. The note with it: small dose. The text has this: Such irreversible substrate concept has been postulated as an oxidase enzyme inhibitor which the applicant agrees is correct in context that such is a protease inhibitor and not an oxidase inhibitor. Such concept provides a hypothesis that logically explains all hydrazide biological prior art phenomena and can predict the prodrug type irreversible substrate action of any simple or low molecular weight hydrazide molecule. The irreversible substrate type protease inhibitor idea is also in agreement with the antidepressant drug explanation and working model, and the Malazide explanation and working model, and was predicted and illustrated by the mouse fetus experiment, and additionally concurs with the Marboran antiviral working model and explanation. […] And following a long period of time where no research was conducted due to family tragedies and related obstruction, the applicant returned to such work where the MAOI type hydrazide, Iproniazid, was then successfully used to target and shutdown protein biosynthesis in cells that hosted malignant disease mechanisms comprising various types of cancers and viral infections. […]

The test system of another series is basal cell carcinoma. Briefly: basal cell carcinoma of the applicant. The class given is in vivo, human. To be noted: during the melanoma treatment. The source says:
A second more benign cancer growth coexisted at the same time while the melanoma treatment was ongoing which was of the basal cell carcinoma type which was not very noticeable, bothersome, or believed to be life threatening, but which also disappeared following the hydrazide melanoma treatment. The basal cell carcinoma was located below the left eye on the applicant's cheek which was characterized by a hard, gritty, cellular formation where scratching or rubbing the surface would dislodge some of the small hard cells which is a common characteristic of basal cell carcinoma. Although the condition was not apparent or at a life threatening stage at the time, and had never raised concerns or the idea of providing opportunity for Iproniazid screening as the melanoma cancer did, it was nevertheless inadvertently shutdown by Iproniazid and had likewise disappeared. Such successful use of Iproniazid as a cancer treatment method constitutes a new cancer treatment use for the MAOI hydrazide product.

In a further series the test system is Kaposi's Sarcoma. Put plainly: Kaposi's Sarcoma of the applicant. Also noted: species or system human. To be noted: in vivo.
The subject of series [1] is bacterial gastroenteritis. Briefly: bacterial gastroenteritis of the applicant. The class given is in vivo, human. The note with it: 100 mg dose with warm tap water.
For series [2] the following is noted: Public Health Service Pub. No.1589 (1967); cited from earlier work.
A further series concerns tuberculosis organism. The note with it: Fox, 1952; cited from earlier work.
The conditions of series [3]: in vivo; cited from earlier work.
For series [4] the following is noted: cited from earlier work.
Another series relates to smallpox. The note with it: Thompson, about 1953; cited from earlier work.
The test system of another series is polio. The note with it: Thompson, about 1953; cited from earlier work.
The conditions of series [5]: 1500 mg to 3000 mg daily; cited from earlier work.
In another series the test system is viral conjunctivitis. Briefly: viral conjunctivitis of the applicant. The class given is in vivo, human. To be noted: single dose of about 100 mg.
The test system of the next series is malignant melanoma. Briefly: malignant melanoma of the applicant. In kind it is in vivo, human. To be noted: about 100 mg daily for about three or four weeks. The text has this: The MAOI hydrazide anticancer concept was reduced to practice by the applicant when an impromptu opportunity appeared after a decade old mole began to metastasize. The growth was about a half inch in diameter located in the center of the applicant's forehead, and had remained stable, symmetrical, and unchanged for years when it began to increase in size, shape, and having mixed pigmentation indicative of malignant melanoma. At such time the applicant began a treatment regimen based on Iproniazid Phosphate at about 100 mg daily for about three or four weeks when the perimeter of the growth began to separate from the skin surface underneath and itch. The applicant would unconsciously pick at the protruding edge as if picking at a scab which served to more quickly separate the neoplastic part at its perimeter where sections were peeled away.

Where two headings read alike, the source gives them in different places. A value given as a limit tells only on which side of the number the result lay.

As for `CC(C)NNC(=O)c1ccncc1` [Iproniazid, Isonicotinic acid 2-isopropylhydrazide], the “outcome of fetal cell division and growth shutdown in pregnant mice” value with fetal cells is “birth of all healthy mice that matured normally to provide midget size adults”. In addition, the “outcome after completed treatment study” value with HIV (after planned research was completed) is “the virus was eradicated in total”. Further, in the series with influenza, the effect on influenza result is recorded as “very rapid recovery”. Further, in the series with basal cell carcinoma, the “effect on basal cell carcinoma” value is on record as “disappeared”. Further, the “effect on Kaposi's Sarcoma” value with Kaposi's Sarcoma was “inhibit and shutdown”. For the same compound, in series [1], the “time until all pain and griping had disappeared” value is no more than 10 min; the “time until most pain was gone” value is no more than 5 min. The “lethal dose for mice” value in series [2] is 1760 mg/kg. In addition, the tuberculostatic activity result in the series with tuberculosis organism was “did not appear to kill the tuberculosis organism”. Moreover, in series [3], the cytotoxic effects entry is “no cytotoxic effects”.

Take `NNC(=O)c1ccncc1` [Isoniazid, Isonicotinic acid hydrazide]: the tuberculostatic activity result in the series with tuberculosis organism is on record as “exceeded all other substances screened”. Further, in [4] (in vivo), the “fraction converted by metabolism to the hydrazide (acetyl) metabolite” value is listed as 50%.

Turning to `CN1C(=O)C(=NNC(N)=S)c2ccccc21` [Marboran, 1-Methylindole-2,3,-dione 3 thiosemicarbazone], the “antiviral action against smallpox” value with smallpox is “effective”. Besides, the “antiviral action against polio” value in the series with polio is on record as “effective”. Besides, the “side effects accompanying use” value in [5] was “nausea and vomiting”.

On to `NN` [hydrazine], for which, in [4] (Fox), the “fraction converted by metabolism to the hydrazide (acetyl) metabolite” value is on record as “about 50%”.

Regarding Iproniazid phosphate, the “course after the single dose” value with HIV (after several weeks) was “the virus begin to return”. Also, in the series with HIV (single dose of about 100 mg, applicant), the “effect of initial single dose on HIV viral activity” value was “shutdown the viral activity seemingly in total”. The “effect on viral conjunctivitis” value with viral conjunctivitis was “disappearance of the inflamation of the conjunctiva”. For the same compound, the “effect on malignant melanoma growth” value in the series with malignant melanoma is on record as “removed in total”.
